tested on: Acetylcholine-Bromide Induced Abdominal Constriction; test: Mouse Acetylcholine Bromide-Induced Abdominal Constriction Assay; type: in vivo; settings: @10 mpk/ko (so in the source)
Text: Mouse Acetylcholine Bromide-Induced Abdominal Constriction Assay
The mouse acetylcholine-induced abdominal constiction assay, as described by Collier et al. in Brit. J. Pharmacol. Chem. Ther., 32:295-310, 1968, with minor modifications was used to assess analgesic potency of the compounds of formula (I). […] The mice were then placed in groups of three into glass bell jars and observed for a ten minute observation period for the occurrence of an abdominal constriction response (defined as a wave of constriction and elongation passing caudally along the abdominal wall, accompanied by a twisting of the trunk and followed by extension of the hind limbs). The percent inhibition of this response to a nociceptive stimulus (equated to % analgesia) was calculated as follows: The % Inhibition of response, i.e., % analgesia is equal to the difference between the No. of control animals response and the No. of drug-treated animals response times 100 divided by the No. of control animals responding.
At least 15 animals were used for control and in each of the drug treated groups. At least three doses were used to determine each dose response curve and ED50 (that dose which would produce 50% analgesia). The ED50 values and their 95% fiducial limits were determined by a computer assisted probit analysis.

Row | Structure (SMILES) | % Inhibition [%]
1 | CN1C[C@@H]2CCC[C@@](O)(c3ccccc3)[C@@H]2C1 (single isomer, unassigned) [Cp-12, (-)-4β-Hydroxy-2-Methyl-4-Phenyl-3aα,7aα-Octahydroisoindole] | 90

same assay, conditions: @10 mpk/po

Row | Structure (SMILES) | % Inhibition [%]
2 | CN1C[C@@H]2CCC[C@@](O)(c3ccccc3)[C@@H]2C1 (single isomer, unassigned) [Cp-15, (+)-4β-Hydroxy-2-Methyl-4-phenyl-3aα,7aα-octahydroisoindole] | 90

same assay, conditions: @30 mpk/po

Row | Structure (SMILES) | % Inhibition
3 | COc1ccc([C@]2(O)CCC[C@H]3CN(C)C[C@H]32)cc1 (relative stereo) [Cp-3] | 46-93%
4 | O[C@@]1(c2cccc(C(F)(F)F)c2)CCC[C@H]2CN(Cc3ccccc3)C[C@H]21 (relative stereo) [Cp-18] | 71%

same assay, conditions: @30 mpk/sc

Row | Structure (SMILES) | % Inhibition [%]
5 | COc1cccc([C@]2(O)CCC[C@H]3CN(Cc4ccccc4)C[C@H]32)c1 (relative stereo) [Cp-13] | 75

same assay, conditions: Mus musculus, 0.5 h; po; 5.5 mg/kg i.p. acetylcholine bromide 30 minutes after drug; read-out: ED50 (dose which would produce 50% analgesia)

Row | Structure (SMILES) | ED50 [mg/kg]
6 | CN1C[C@@H]2CCC[C@@](O)(c3cccs3)[C@@H]2C1 (relative stereo) [Cp-1] | 7.3
7 | CN1C[C@@H]2CCC[C@@](O)(c3ccc(F)cc3)[C@@H]2C1 (relative stereo) [Cp-4] | 0.76
8 | CN1C[C@@H]2CCC[C@@](O)(c3cccc4ccccc34)[C@@H]2C1 (relative stereo) [Cp-5] | 16.6
9 | CN1C[C@@H]2CCC[C@@](O)(c3cccnc3)[C@@H]2C1 (relative stereo) [Cp-6] | 30.4
10 | CN1C[C@@H]2CCC[C@@](O)(c3cccc(F)c3)[C@@H]2C1 (relative stereo) [Cp-7] | 5.38
11 | CN1C[C@@H]2CCC[C@@](O)(c3cccc(C(F)(F)F)c3)[C@@H]2C1 (relative stereo) [Cp-8] | 2.08
12 | CN1C[C@@H]2CCC[C@@](O)(c3ccccn3)[C@@H]2C1 (relative stereo) [Cp-9] | 15.4
13 | CN1C[C@@H]2CCC[C@@](O)(c3ccc(Cl)cc3Cl)[C@@H]2C1 (relative stereo) [Cp-11] | 1.36
14 | CN1C[C@@H]2CCC[C@@](O)(c3ccccc3)[C@@H]2C1 (relative stereo) [Cp-16] | 3.9
15 | O[C@@]1(c2cccc(C(F)(F)F)c2)CCC[C@H]2CNC[C@H]21 (relative stereo) [Cp-19] | 4.2
16 | O[C@@]1(c2ccc(C(F)(F)F)cc2)CCC[C@H]2CN(Cc3ccccc3)C[C@H]21 (relative stereo) [Cp-20] | 10.7
